In ChEMBL document CHEMBL5625206, “Design, synthesis, and evaluation of novel pleuromutilin aryl acrylate derivatives as promising broad-spectrum antibiotics especially for combatting multi-drug resistant gram-negative bacteria” (Eur J Med Chem, 2023):
Converted amounts (≈) assume the structure as drawn. The source made the active and inactive calls. No cut-off for these calls is given here.

What was measured:
Staphylococcus aureus [1] = test: Antibacterial activity against methicillin-resistant Staphylococcus aureus 575 clinical isolate assessed as bacterial growth inhibition incubated for 24 hrs by CLSI based broth microdilution method; assay type: functional
Klebsiella pneumoniae = test: Antibacterial activity against multidrug-resistant Klebsiella pneumoniae 893 clinical isolate assessed as bacterial growth inhibition incubated for 24 hrs by CLSI based broth microdilution method; assay type: functional
Acinetobacter baumannii = test: Antibacterial activity against carbapenem-resistant Acinetobacter baumannii 882 clinical isolate assessed as bacterial growth inhibition incubated for 24 hrs by CLSI based broth microdilution method; assay type: functional
Mesomycoplasma hyorhinis = test: Anti-mycoplasma activity against Mycoplasma hyorhinis BTS-7-NCTC10130 assessed as bacterial growth inhibition incubated for 7 days; assay type: functional; settings: BTS-7-NCTC10130, 168 h, time 7 day
[2] = Cytotoxicity against human A549 cells incubated for 24 hrs by CCK8 assay; assay type: toxicity, cell-based
Staphylococcus aureus [3] = test: Inhibition of biofilm formation of methicillin-resistant Staphylococcus aureus ATCC 33591 incubated for 24 hrs by crystal violet staining based analysis; assay type: functional, organism-based
Staphylococcus aureus [4] = test: Induction of cell damage in methicillin-resistant Staphylococcus aureus ATCC 33591 assessed as fold increase in extracellular ATP concentration at 2 times MIC incubated for 30 mins by fluorescence based analysis relative to control; assay type: functional; settings: 0.5 h
Escherichia coli [5] = test: Induction of cell damage in Escherichia coli ATCC 25922 assessed as fold increase in extracellular ATP concentration at 2 times MIC incubated for 30 mins by fluorescence based analysis relative to control; assay type: functional; settings: 0.5 h
Escherichia coli [6] = test: Induction of extracellular electrical conductivity in Escherichia coli ATCC 25922 at MIC incubated for 6 hrs; assay type: functional, organism-based
[7] = Toxicity in neutropenic Kunming mouse model infected with methicillin-resistant Staphylococcus aureus ATCC 33591 assessed as survival rate at 5 mg/kg, ip measured after 7 days relative to control; assay type: organism-based; settings: in vivo, 168 h, time 7 day
Staphylococcus aureus [8] = test: Antibacterial activity against methicillin-resistant Staphylococcus aureus ATCC 33591 infected in neutropenic Kunming mouse model assessed as bacterial load reduction in liver at 10 to 20 mg/kg, ip measured after 2 days; assay type: functional, organism-based; settings: dose 10-20 mg/kg, time 2.0 day
Staphylococcus aureus [9] = test: Antibacterial activity against methicillin-resistant Staphylococcus aureus ATCC 33591 infected in neutropenic Kunming mouse model assessed as reduction in infection-induced inflammatory cell inflammation in lung at 10 mg/kg, ip measured after 7 days; assay type: functional, organism-based; settings: time 7.0 day
Staphylococcus aureus [10] = test: Antibacterial activity against methicillin-resistant Staphylococcus aureus ATCC 33591 infected in neutropenic Kunming mouse model assessed as reduction in infection-induced inflammatory cell inflammation in kidney at 10 mg/kg, ip measured after 7 days; assay type: functional, organism-based; settings: time 7.0 day
Staphylococcus aureus [11] = test: Antibacterial activity against methicillin-resistant Staphylococcus aureus ATCC 33591 infected in neutropenic Kunming mouse model assessed as reduction in infection-induced inflammatory cell infiltration in lung at 20 mg/kg, ip measured after 7 days; assay type: functional, organism-based; settings: time 7.0 day
[12] = AUC (0 to t) in fasted Sprague-Dawley rat at 1 mg/kg, iv by LC-MS/MS analysis; assay type: ADME, organism-based; settings: in vivo
[13] = Clearance in fasted Sprague-Dawley rat at 1 mg/kg, iv by LC-MS/MS analysis; assay type: ADME, organism-based; settings: in vivo
[14] = Toxicity in fasted female Sprague-Dawley rat assessed as body weight at 100 mg/kg, IG measured on same day (reference value: 165.2 +/- 8.1 g); assay type: organism-based; settings: in vivo, po
[15] = Toxicity in fasted male Sprague-Dawley rat assessed as body weight at 331 mg/kg, IG measured after 7 days (reference value: 260.5 +/- 12.7 g); assay type: organism-based; settings: in vivo, po, 168 h, time 7 day
[16] = Toxicity in fasted female Sprague-Dawley rat assessed as body weight at 331 mg/kg, IG measured after 7 days (reference value: 188.2 +/- 9.2 g); assay type: organism-based; settings: in vivo, po, 168 h, time 7 day
[17] = Toxicity in fasted female Sprague-Dawley rat assessed as body weight at 500 mg/kg, IG measured after 7 days (reference value: 188.2 +/- 9.2 g); assay type: organism-based; settings: in vivo, po, 168 h, time 7 day
[18] = Toxicity in fasted male Sprague-Dawley rat assessed as body weight at 100 mg/kg, IG measured after 14 days (reference value: 311.2 +/- 13.6 g); assay type: organism-based; settings: in vivo, po, 336 h, time 14 day
[19] = Toxicity in fasted male Sprague-Dawley rat assessed as body weight at 148 mg/kg, IG measured after 14 days (reference value: 311.2 +/- 13.6 g); assay type: organism-based; settings: in vivo, po, 336 h, time 14 day
[20] = Toxicity in fasted female Sprague-Dawley rat assessed as body weight at 331 mg/kg, IG measured after 14 days (reference value: 214.3 +/- 9.8 g); assay type: organism-based; settings: in vivo, po, 336 h, time 14 day
[21] = Toxicity in fasted male Sprague-Dawley rat assessed as animal growth rate at 331 mg/kg, IG measured for 14 days (reference value: 46.53 +/- 3.19 g); assay type: organism-based; settings: in vivo, po, 336 h, time 14 day
[22] = Toxicity in fasted male Sprague-Dawley rat assessed as relative liver weight ratio at 148 mg/kg, IG measured for 14 days (reference value: 3.616 +/- 0.286); assay type: organism-based; settings: in vivo, po, 336 h, time 14 day
[23] = Toxicity in fasted male Sprague-Dawley rat assessed as relative liver weight ratio at 331 mg/kg, IG measured for 14 days (reference value: 3.616 +/- 0.286); assay type: organism-based; settings: in vivo, po, 336 h, time 14 day
[24] = Toxicity in fasted female Sprague-Dawley rat assessed as relative liver weight ratio at 500 mg/kg, IG measured for 14 days (reference value: 3.199 +/- 0.062); assay type: organism-based; settings: in vivo, po, 336 h, time 14 day
[25] = Toxicity in fasted male Sprague-Dawley rat assessed as relative kidney weight ratio at 148 mg/kg, IG measured for 14 days (reference value: 0.820 +/- 0.072); assay type: organism-based; settings: in vivo, po, 336 h, time 14 day
[26] = Toxicity in fasted male Sprague-Dawley rat assessed as relative heart weight ratio at 100 mg/kg, IG measured for 14 days (reference value: 0.396 +/- 0.043); assay type: organism-based; settings: in vivo, po, 336 h, time 14 day
[27] = Toxicity in fasted male Sprague-Dawley rat assessed as relative heart weight ratio at 224 mg/kg, IG measured for 14 days (reference value: 0.396 +/- 0.043); assay type: organism-based; settings: in vivo, po, 336 h, time 14 day
[28] = Toxicity in fasted female Sprague-Dawley rat assessed as relative heart weight ratio at 224 mg/kg, IG measured for 14 days (reference value: 0.429 +/- 0.016); assay type: organism-based; settings: in vivo, po, 336 h, time 14 day
[29] = Toxicity in fasted male Sprague-Dawley rat assessed as relative lung weight ratio at 224 mg/kg, IG measured for 14 days (reference value: 0.437 +/- 0.064); assay type: organism-based; settings: in vivo, po, 336 h, time 14 day
[30] = Toxicity in fasted female Sprague-Dawley rat assessed as relative spleen weight ratio at 100 mg/kg, IG measured for 14 days (reference value: 0.223 +/- 0.019); assay type: organism-based; settings: in vivo, po, 336 h, time 14 day
[31] = Toxicity in fasted male Sprague-Dawley rat assessed as relative spleen weight ratio at 148 mg/kg, IG measured for 14 days (reference value: 0.246 +/- 0.037); assay type: organism-based; settings: in vivo, po, 336 h, time 14 day
[32] = Toxicity in fasted female Sprague-Dawley rat assessed as relative spleen weight ratio at 224 mg/kg, IG measured for 14 days (reference value: 0.223 +/- 0.019); assay type: organism-based; settings: in vivo, po, 336 h, time 14 day
[33] = Toxicity in fasted male Sprague-Dawley rat assessed as relative spleen weight ratio at 500 mg/kg, IG measured for 14 days (reference value: 0.246 +/- 0.037); assay type: organism-based; settings: in vivo, po, 336 h, time 14 day

## C=C[C@]1(C)C[C@@H](OC(=O)COC(=O)/C=C/c2ccc(N(C)C)cc2)[C@]2(C)[C@H](C)CC[C@]3(CCC(=O)[C@H]32)[C@@H](C)[C@@H]1O
Staphylococcus aureus [1]
  MIC: 8 µg/mL (≈ 14.5 µM)
Klebsiella pneumoniae
  MIC: 64 µg/mL (≈ 116 µM)
Acinetobacter baumannii
  MIC: 64 µg/mL (≈ 116 µM)
Mesomycoplasma hyorhinis
  MIC: 0.004 µg/mL (≈ 0.00725 µM)
[2]
  CC50 at 24 h: > 200 µM
Staphylococcus aureus [3]
  inhibition: Dose-Dependent Effect
Staphylococcus aureus [4]
  fold change (FC): 3.21
Escherichia coli [5]
  fold change (FC): 5.35
Escherichia coli [6]
  Activity: Active
[7]
  Survival: 30%
Staphylococcus aureus [8]
  Activity: Active
Staphylococcus aureus [9]
  Activity: inactive
Staphylococcus aureus [10]
  Activity: inactive
Staphylococcus aureus [11]
  Activity: Active
[12]
  AUC(0-t): 512 ng·h/mL
[13]
  clearance: 35 mL/min/kg
[14]
  Activity: 163.6 g
[15]
  Activity: 268 g
[16]
  Activity: 196.2 g
[17]
  Activity: 181.3 g
[18]
  Activity: 314.5 g
[19]
  Activity: 303.6 g
[20]
  Activity: 218.7 g
[21]
  Activity: 40.48%
[22]
  Ratio: 3.59
[23]
  Ratio: 3.528
[24]
  Ratio: 3.203
[25]
  Ratio: 0.799
[26]
  Ratio: 0.396
[27]
  Ratio: 0.38
[28]
  Ratio: 0.453
[29]
  Ratio: 0.411
[30]
  Ratio: 0.226
[31]
  Ratio: 0.227
[32]
  Ratio: 0.249
[33]
  Ratio: 0.209
